Data set [1] is described as follows: Peptide stability in mouse plasma. In kind it is in vitro ADME. Particulars: 100 μg/mL, 37° C., LC-MS/MS, FIG. 3 and FIG. 5. The method, then:
The stability of peptides was also tested in mouse and human plasma. Briefly, a certain amount of peptides and eucatropine powder (positive control) was accurately weighed. Test compounds were dissolved in 50% methanol-water solution and diluted to 20 mg/mL, and eucatropine was dissolved in dimethylsulfoxide (DMSO) and diluted to 10 mM, as a stock solution. Eucatropine stock solution was diluted to 0.2 mM with DMSO as a working solution. A stop reagent was prepared containing 200 ng/mL midazolam and tolbutamide in acetonitrile. A volume of 300 μL of stop solution was added to each well of a 96-well deep-well plate placed on ice beforehand.
For the stability studies, peptides and eucatropine were spiked into plasma respectively, mixed well, and then 100 μL of each mixture solution was transferred into the pre-cooled stop reagent as 0 time point sample. The remaining mixtures were incubated in a 37° C. water bath with shaking at 100 rpm (n=2). The final incubation concentration was 1 μM for eucatropine and 100 μg/mL for all test compounds.
At desired time points, 100 μl, of incubation mixture was transferred to the stop reagent to precipitate proteins. Samples were vortexed and centrifuged at RCF 5000-g for 10 minutes, and supernatant was transferred to a test plate. The samples were analyzed by LC-MS/MS.
Slope was calculated by plotting the natural logarithm of the percentage or remaining amount of test compounds and time, and T12 was calculated in accordance with the following formula.
For stability in mouse plasma, the incubation time was 0, 5, 15, 30 and 60 min for Peptide 1 and eucatropine, 0, 15, 30, 60, 120, 240 and 480 min for Peptide 12, Peptide 16 and Peptide 29.
In another stability study in mouse plasma, the incubation time was 0, 30, 60 and 120 min for Peptide 2 and eucatropine; 0, 30, 60, 120, 240 and 960 min for Peptide 52 and Peptide 54.

A further data set deals with pancreatic islets. Briefly: Glucose-stimulated insulin secretion (GSIS) of isolated islets. The note with it: rat islets, 12.0 mM glucose, 10 μg/mL peptide (GLP-1 100 nM), 60 min, FIG. 8. The format is cell-based, Sprague-Dawley (SD) rats. How it is done: The pancreases were procured from male adult Sprague-Dawley (SD) rats. After 7 days acclimation, the animals were sacrificed by cervical dislocation and the entire pancreas was removed and digested with collagenase to isolate islets. After digestion, islets were maintained at 37° C. in RPMI 1640 (Carlsbad, Calif., USA) pH 7.4, containing 10% (v/v) fetal calf serum, 1% penicillin/streptomycin, and 10 mM glucose in a humid atmosphere (5% CO2/95% O2), without the addition of any compound (control), or with the addition of 100 nM glucagon like peptide-1 (GLP-1); or 10 μg/mL Peptide 1, Peptide 12, or Peptide 16, as summarized in Table 4 below. Cultured islets were rinsed in Krebs-Ringer bicarbonate buffer (KRB), pH 7.4, previously gassed with a mixture CO2/O2 (5/95%), and pre-incubated in 1.0 ml KRB containing 0.5% (w/v) BSA and 1.5 mM glucose at 37° C. for 45 min. After this period, groups of 5 islets were incubated in 0.6 ml KRB with the addition of 1.5 or 12.0 mM glucose, with or without the addition of peptides for 60 min. At the end of the incubation period, aliquots of the medium were collected for insulin quantitation.

Another data set in a line: Pharmacokinetics in rat. The format is in vivo, Sprague-Dawley (SD) rats. The note with it: rat, in vivo, 25 mg/kg. The method, then:
After 7 days acclimation, male Sprague-Dawley (SD) rats weighing 210-250 g, or male C57BL/6 mice, weighing 19-24 g, in good health were used in the study. Peptide 1, Peptide 12 and Peptide 16 were dissolved in sterile normal saline and then they were injected via subcutaneous (sc) bolus or intravenous (iv) bolus at the dose level of 25 mg/kg. Three animals in each group were used for blood collection at the time point of 5 min, 15 min, 30 min, 1 h, 2 h, 4 h, 6 h, 8 h and 24 h post-dose. Blood samples (approximately 400 μL) were collected and placed into tubes containing EDTA-K2 and centrifuged at 8000 rpm for 6 minutes at 4° C. to separate plasma front the samples. The resulting plasma was stored frozen at −80° C. until being analyzed. Plasma concentrations of peptides were determined using tandem mass spectrometry (LC-MS/MS) analysis. A non-compartmental module of WinNonlin® Professional 5.2 (Pharsight; St. Louis, Mo.), was used to calculate PK parameters. The abbreviation AUC(0-t) represents area under the curve front the time of dosing to the time of the last observation, the AUC(0-∞) represents area under the curve from the time of dosing to infinity, and the Cmax represents maximum concentration detected.

Data set [2] can be described thus: Peptide stability in culture medium. In kind it is physicochemical. The note with it: F-12K medium, 0.25 mg/mL, 37° C., 0-72 hours, HPLC, FIG. 2. How it is done: To determine the stability of peptides in culture medium, a certain amount of selected peptides was accurately weighed and dissolved in distilled water to 5 mg/mL as a stock solution. The stock solution was diluted to 0.25 mg/mL with F-12K medium (Gibco-BRL, Gaithersburg, Md., USA) as working solution. A volume of 100 μL of each working solution was transferred into individual sample vials. The sample vials were incubated in a 37° C. incubator for 0, 24, 48 and 72 hours before being analyzed and quantitated by HPLC.

The subject of a further data set is normal C57BL/6J mice. Briefly: Induction of small β-cell clusters in normal mice. The format is in vivo. Particulars: for body weight, blood glucose, plasma insulin, pancreas insulin, or pancreas weight: compared to saline group. How it is done: After a 1-week acclimation, C57BL/6J female mice were randomly divided into 4 groups. The two control groups received either 10 mL/kg sterile normal saline (n=4) or scrambled peptide (Peptide 3, 25 mg/kg) (n=5) via subcutaneous injection for 10 days. The other two groups received INGAP-PP (Peptide 1) or INGAP-PP analog Peptide 7 at a dose of 25 mg/kg per day respectively (n=7 per group) for the same period. Body weight and 6 hour fasting blood glucose were measured before treatment and after the last dosing of treatment. Plasma and pancreatic insulin were also measured at the end of the study. On day 11, the pancreas was removed from each animal, cleared of fat and lymph nodes, weighed, and fixed in 10% neutral buffered formalin (NBF) for no longer than 24 hours before processing for morphometric analysis.
Immunohistochemistry analysis was used to determine pancreatic islet size distribution.

For data set [3], the system named is STZ induced diabetic mice model. Briefly: Efficacy in streptozotocin (STZ) induced diabetic mice model. In kind it is in vivo, C57BL/6J mice. The note with it: 5 mg/kg or 25 mg/kg for 20 days. The method, then:
After acclimatization in the animal facility for one week, 6-8 weeks old C57BL/6J mice were administered low dose STZ at 40 mg/kg in citrate buffer for 5 consecutive days to establish a TID animal model. Mice with blood glucose greater than 16.7 mmol/L at 5 days post last STZ injection were included in the study. These mice were then treated with INGAP-PP (Peptide 1) or Peptide 7 at the closes of 5 mg/kg (2.5 mg/kg, bid (twice a day)) or 25 mg/kg (12.5 mg/kg, bid) for 20 days before sacrifices. Two additional groups of diabetic mice were administered either saline or a peptide (Peptide 3) composed of a scrambled sequence of amino acids from Peptide 1 as control groups. Blood glucose and insulin levels were measured, and 20 days post the last dosing of test agents, an oral glucose tolerance test (OGTT) was performed in 6 hour fasted animals to determine the effect of Peptide 1 and Peptide 7. Blood samples obtained from the tail cut for glucose determination were detected with an ACCU-CHEK™ glucometer (Roche, ACCU-CHEK® Active), and insulin levels were determined with Rat/Mouse Insulin Elisa kit (Millipore, Billerica, Mass. USA). For the OGTT, after the measurement of the basal glucose concentration (T=−30 min), mice received an oral glucose challenge at 2 g/kg and glucose values were determined by glucometer at 0, 15, 30, 60, 90 and 120 min.

Where [4] appears, read: normal mice, 25 mg/kg sc for 10 days.

Experimental findings from patent US10899815B2, “Compositions and methods of using islet neogenesis peptides and analogs thereof” (SHENZHEN HIGHTIDE BIOPHARMACEUTICAL, LTD., priority 2013, dated 2021) are described below.

Ends that are not written are not given here.

Take “Ac-IGLHDPSHGTLPAGS-NH2 [Peptide 29, Ac-IGLHDPSHGTLPAGS-NH2]”: the “stability in mouse plasma” value in data set [1] was “good stability in mouse plasma and were more stable than INGAP-PP”.

In the case of “Ac-IGLHDPSHGTLPAGS-OH [Peptide 12, Ac-IGLHDPSHGTLPAGS-OH]”, the “glucose-stimulated insulin secretion versus islets without peptides” value in the data set on pancreatic islets is “released significantly more insulin”. The “PK properties (AUC and Cmax) compared to INGAP-PP” value in the data set “Pharmacokinetics in rat” is listed as “marked improved PK properties”.

Regarding “Ac-IGLHDPTQGTEPAGE-OH [Peptide 52, Ac-IGLHDPTQGTEPAGE-OH]”, the “stability in mouse plasma” value in data set [1] was “good stability in mouse plasma and were significantly more stable than HIP”.

On to “Ac-IGLHDPTQGTEPNGE-OH [Peptide 54, Ac-IGLHDPTQGTEPNGE-OH]”, for which the “stability in mouse plasma” value in data set [1] was “good stability in mouse plasma and were significantly more stable than HIP”.

Turning to “GLP-1: Glucagon like peptide-1, positive control at 100 nM in GSIS (HAEGTFTSDVSSYLEGQAAKEFIAWLVKGR; ends and bridges not checked; UniProt P01275 98-127, looked up) [reference compound]”, the “glucose-stimulated insulin secretion versus islets without peptides” value in the data set with pancreatic islets is “released significantly more insulin”.

Regarding H-IGLHAPSHGTLPAGS-OH [Peptide 8], in data set [2], the “stability in culture medium” value is “significantly more stable than INGAP-PP peptide”.

“H-IGLHDPSHGTLPNGS-OH [Peptide 1, H-IGLHDPSHGTLPNGS-OH, reference compound]”: the “number of islets, islet size ranging from 2.1 to 0.7” value in the data set on normal C57BL/6J mice (normal female C57BL/6J mice, 25 mg/kg per day for 10 days, islet size as Log [μm^2], FIG. 7) is given as “only observed in islet size of 2.1”. Also, the “body weight, blood glucose, plasma insulin, pancreas insulin, or pancreas weight” value in the data set on normal C57BL/6J mice (setting [4]) was “did not affect”. In data set [3], the “body weight or pancreas weight” value was “did not affect”. Further, the “glucose-stimulated insulin secretion versus islets without peptides” value with pancreatic islets is on record as “no stimulation”.

As for “H-SHPNGSGTIGLHDPL-OH [Peptide 3, H-SHPNG SGTIG LHDPL-OH]”, in the data set on normal C57BL/6J mice (setting [4]), the “all parameters measured, versus normal saline” value was “no difference” and the “body weight, blood glucose, plasma insulin, pancreas insulin, or pancreas weight” value is recorded as “did not affect”.
